From patent US20090023186A1, “USE OF VALPROIC ACID FOR ENHANCING PRODUCTION OF RECOMBINANT PROTEINS IN MAMMALIAN CELLS” (EXCELLGENE SA, priority 2007, published 2009) come the findings set out here.

For the experiment, the system named is CHO DG44 cells. As to the kind of experiment: Transient IgG expression, batch titer by ELISA, VPA concentration series (Example 1). Conditions: for Fold increase over control / Batch titer: IgG, day 5 after transfection; for Batch titer: 37° C. Type of experiment: cell-based, Chinese Hamster. As for the experimental part: 10 million suspension-adapted HEK293E cells were resuspended in 0.5 ml of Ex-Cell 293 HEK 293 serum-free medium with 4 mmol/l L-glutamine (Cat. No. 14571C-1000 M; Lot No. 6A0093; SAFC Biosciences, Lenexa, Kans., USA, “Ex-Cell” medium; note: “Ex-Cell” medium-as used herein-refers to a medium comprising 4 mmol/l L-glutamine) in a 50-ml filter tube each (TPP AG, Trasadingen, Switzerland; Cat. No. 87050, Lot 20050174). In a separate set, 10 million suspension-adapted CHO DG44 cells were resuspended in 0.5 ml of ProCHO5 serum-free medium with 4 mmol/[…] hypoxanthine and 0.194 g/l thymidine (BioWhittaker (Lonza), Belgium; Cat. No. BE12-[…]; Lot No. 7 MB0040; “ProCHO5” medium; note: “ProCHO5” medium-as used herein-refers to a medium comprising 4 mmol/[…] hypoxanthine and 0.194 g/l thymidine) in a 50-ml filter tube each (TPP AG, Trasadingen, Switzerland; Cat. No. 87050, Lot 20050174). Then 12.5 μg plasmid DNA at a concentration of 1 μg/μl was added in each tube with the following composition 50% (6.25 μg) p-LC (SEQ ID NO: 1) 50% (6.25 μg) p-HC (SEQ ID NO: 3). Plasmid p-LC comprises the genetic information for the production of the light chain of an IgG antibody, plasmid p-HC comprises the genetic information for the production of the heavy chain of an IgG antibody. The particular vector constructs used in the present invention can also be obtained from the inventors. The inventors can be contacted via e-mail at […]. Moreover, commercial services do exist that produce any desired nucleotide sequence even comprising several kilobase pairs including complete expression cassettes in plasmid backgrounds (e.g., Invitrogen, Carlsbad, USA; Geneart, Germany.) Thus, providing the genetic sequence information of the plasmids should enable one of ordinary skill in the art to order the plasmids of the present invention at one of the commercial services listed. After shortly mixing the DNA with the cells by gentle shaking, 25 μg of 25-kd linear polyethyleneimine (“PEI”; Polysciences, Eppelheim, Germany; [2]) were added at a concentration of 1 μg/μl to each of the tubes. After shortly mixing by gentle shaking, the filter tubes containing the cells together with the DNA and PEI were transferred into an orbital shaker (Kühner Shaker Cabinet ISF-4-W, “Kühner shaker”, Kühner AG, Birsfelden, Switzerland), and the cells were incubated for 4 hours at 37° C. in a 5% CO2 atmosphere under shaking at 180 rpm. After that time, 4.5 ml of Ex-Cell medium were added to each of the filter tubes containing HEK 293 cells and 4.5 ml of Pro-CHO5 were added to each of the filter tubes containing CHO DG44 cells. Then, valproic acid was added to each of the tubes at the corresponding final concentration. The cells then were returned into the Kühner shaker and incubated at 37° C. in a 5% CO2 atmosphere under shaking at 180 rpm. […] The ELISA was performed as published in prior art. In short, Goat anti-human kappa light chain IgG (Biosource) was used for coating the ELISA-plates, and with AP-conjugated goat anti-human gamma chain IgG (Biosource) the synthesized IgG1 was detected. NPP was used as a substrate for the alkaline phosphatase. Absorption was measured at 405 nm against 490 nm using a microplate reader (SPECTRAmaxTM340; Molecular Devices, Palo Alto, Calif., USA).
For orientation: An ELISA detects its analyte on a solid surface through an enzyme-linked reagent.

Each structure is given as a SMILES string.

In the case of `CCCC(CCC)C(=O)O` [VPA, valproic acid], the “Fold increase over control” value is, setting by setting: (0.05 mmol/l final VPA) 1 fold; (0.1 mmol/l final VPA) 1.3 fold; (0.2 mmol/l final VPA) 1.8 fold; (0.5 mmol/l final VPA) 2.1 fold; (1 mmol/l final VPA) 1.9 fold; (2 mmol/l final VPA) 1.3 fold. Under “3 mmol/l final VPA”, the “Fold increase over control” value turned out to be 1.0 fold. Moreover, the Batch titer reads like this: (0.05 mmol/l final VPA) 7.4 ± 1.1 mg/L; (0.1 mmol/l final VPA) 10.0 ± 1.5 mg/L; (0.2 mmol/l final VPA) 13.7 ± 1.2 mg/L; (0.5 mmol/l final VPA) 16.3 ± 1.3 mg/L; (1 mmol/l final VPA) 14.4 ± 1.2 mg/L; (2 mmol/l final VPA) 10.0 ± 0.9 mg/L. Under “3 mmol/l final VPA”, this compound showed a Batch titer of 7.4 ± 1.2 mg/L. Besides, for the setting “for batch titer, CHO DG44 cells, day 5”, the optimal final concentration result is “around 0.5 mmol/l”.
